Reference: patent publication US8299285B2, “Compounds for imaging and therapy” (Isis Innovation Limited, priority 2005, dated 2012)
“And” between values parts separate entries of the source, which are not always exact repeats. Identical values can stand only once. Like-named read-outs stand apart in the source and are kept apart here.

What was measured:
Assay type in all cases: physicochemical
[1] = Fluorescence of Zn[ATS(Me)/A-T-Amino-BTAP] and its precursors; conditions: 475 nm, DMSO, 0.01 mM
Experimental: (§1) UV/Vis and fluorescence spectra were measured with a Perkin Elmer Lamda 19 spectrometer and a Hitachi F-4500 fluorescence spectrophotometer respectively.
The fluorescence emission spectrum of Zn[ATS(Me)/A-T-Amino-BTAP] can be examined as two regions 400-500 nm, predominantly benzothiazole fluorescence and 490-790 nm, predominantly the zinc (BTSC) fluorescence.
FIGS. 3 and 4 show the fluorescence emission spectra (a) for Amino-BTAP, 4-Aldehydrophenylimino-BTAP and Zn[ATS(Me)/A-T-Amino-BTAP], (375 nm, D MSO, 0.01 mM); and (b) for Zn[ATS(Me)/A-T-Amino-BTAP], Zn[ATS(Me)/A] and Zn[ATS(Me)/A-T], (475 nm. DMSO, 0.01 mM).

[2] = UV/vis spectroscopy of complexes 1-13; conditions: for λmax (nm), (higher wavelength absorption peak, lowest energy transition) / λmax (nm): DMSO, 0.001 mmol concentration; for ε (mol^-1 dm^3 cm^-1): molar absorption coefficient of the higher wavelength absorption peak, Beer-Lambert law
Experimental: as §1
(§2) The optical properties of a range of mono- and binuclear complexes derived from Zn[ATSM/A] (see the table below) were measured by electronic absorption (UV/vis) and fluorescence spectroscopy.
UV/vis spectroscopy: electronic absorption spectra were recorded in DMSO at 0.1, 0.01 and 0.001 mmol concentrations. Values of λmax were obtained from spectra of solutions at 0.001 mmol concentration, as this is sufficiently dilute to enable intermolecular interactions to be neglected.

[3] = Fluorescence spectroscopy of complexes 1-13; conditions: for fluorescence strength: 0.01 mmol concentrations in DMSO; for fluorescence emission λmax /nm / Relative intensity / Relative intensity (values in parentheses): excited at 475 nm; for fluorescence emission λmax /nm / Relative intensity: 0.01 mmol solutions in DMSO; for Relative intensity / Relative intensity (values in parentheses): relative to complex 3; for Relative intensity (values in parentheses): 0.1 mmol solutions; for increase in fluorescence intensity relative to Zn[ATSM] and Zn[ATSM/A]: fluorescence emission
Experimental: as §1, §2
Fluorescence spectroscopy: the fluorescence of complexes 1-13 was measured at 0.1, 0.01 and 0.001 mmol concentrations by exciting at a range of wavelengths from 300 nm to 500 n. At 0.1 mmol and 0.01 mmol concentrations all of the complexes show emissions between 534 nm and 604 nm. […] Values of λmax and the intensity of the fluorescence emission relative to that of complex 3 when excited at 475 nm for complexes 1-13 are give in the following table.
All values relate to 0.01 mmol solutions in DMSO. (a) The values in parentheses refer to 0.1 mmol solutions.

[4] = octanol/water partition coefficient (log P)
From the text: Modification of the substituents present on the bis(thiosemicarbazone) ligand can be used to control, for example, the lipophilicity of the ligand and resulting complex. For example, lipophilicity can be increased with increasing alkyl substitution of the conjugated ligand backbone, particularly in the groups R2, R2′, L1, L1′, R1 and R1′.

[5] = Fluorescence emission spectra of zinc bis(thiosemicarbazone) complexes (Zn[BTSCs]); conditions: for fluorescence peak associated with the phenyl ring: FIG. 2; for Fluorescence Emission λmax(1): peak (1), associated with the phenyl component; for Fluorescence Emission λmax(2): peak (2), associated with the BTSC backbone
Experimental: as §1
In addition to the fluorescence band around 550 nm the Zn[ATS(R)/P-carb] complexes show a second band with at λma 340 nm. This may be associated with the fluorescence of the terminal benzoic acid group.
Fluorescence emission of Zn[ATS(R)/P-Cart] for excitation with DMSO at 300 nm.
To further investigate the effect of addition of a phenyl group onto zinc [BTSC], complexes differing only by the presence of a phenyl group were compared; see FIG. 2.
The Zn[GT(Et)] peak at 335 nm, is a Raman scattering peak. The Zn[PGTS(Et)] peak at 342 nm and the Zn[GTS(Ph)] peak at 397 nm are due to fluorescence associated with the phenyl ring. These peaks are readily differentiated; true fluorescence emission peaks (λmax,) remain static over a range of excitation wavelengths whereas Raman peaks (λmax) vary, as described by Wayne, R. P., in Principles and Applications of Photochemistry, 1986.
(§3) The following table gives the position of λmax for the fluorescence emission spectra and the second and third UV/vis Absorptions for a range of Zn[BTSCs]
Fluorescence peak (1) between 340 and 400 nm, associated with the phenyl component and a second, fluorescence peak (2), present in all complexes between 530 and 570 nm, associated with the BTSC backbone. The intensity of fluorescence peak (1) was always less than that of fluorescence peak (2). Fluorescence peak (2) for the all the phenyl complexes appear at longer wavelengths as these have longer delocalised π systems than their alkyl substituted counterparts.

[6] = UV/Vis absorption of Zn[BTSCs]; conditions: for UV/Vis Absorption λmax(2): second UV/vis absorption; for UV/Vis Absorption λmax(3): third UV/vis absorption
Experimental: as §1
The co-ordination of BTSCs to zinc produces an extended delocalised system. Zn[ATSM] was the first of these complexes observed to be fluorescent (Emission: λmax=557 nm) and with UV/Vis absorptions at 308 and 429 nm, in line with the predictions of DFT calculations. A third absorption predicted by DFT at below 300 nm was not observed due to limitations of the spectrometer.
as §3

[7] = Cyclic voltammetry in DMF with a glassy carbon electrode; conditions: vs SCE
From the text: Under the same conditions the hypoxia selective radiopharmaceutical [Cu(ATSM)] undergoes a reversible reduction at E1/2=−0.59 V.

[8] = wavelengths greater than 300 nm

Row | Compound | λmax (nm), (higher wavelength absorption peak, lowest energy transition) [2] [nm] | λmax (nm) [2, 8] [nm] | ε (mol^-1 dm^3 cm^-1) [2] [mol^-1 dm^3 cm^-1] | fluorescence emission λmax /nm [3] [nm] | Relative intensity [3] | also measured
1 | CNC1=NN=C(C)C(C)=NN=C(NN)[S][Zn][S]1 [Complex 2, Zn[ATSM/A]] | 429 | 315 | 29690 | 548 | 0.10 | fluorescence intensity in the zinc complex region, versus Zn[ATS(Me)/A-T-Amino-BTAP] [1]: approximately tenfold lower; rank of fluorescence emission curve intensity, FIG. 4 (b) [1]: second highest intensity; fluorescence strength [3]: comparatively weak fluorescence; Relative intensity (values in parentheses) [3]: 0.32
2 | CNC1=NN=C(C)C(C)=NN=C(N/N=C/c2ccccc2)[S][Zn][S]1 [Complex 3, Zn[ATSM/A-benzaldehyde]] | 451 | 333 | 40016 | 553 | 1.00 | –
3 | CNC1=NN=C(C)C(C)=NN=C(N/N=C/c2ccco2)[S][Zn][S]1 [Complex 4, Zn[ATSM/A-2-furaldehyde]] | 455 | 340 | 36939 | 551 | 1.05 | –
4 | CNC1=NN=C(C)C(C)=NN=C(N/N=C/c2ccccc2O)[S][Zn][S]1 [Complex 5, Zn[ATSM/A-salicylaldehyde]] | 455 | 346 | 51172 | 548 | 0.95 | –
5 | CNC1=NN=C(C)C(C)=NN=C(N/N=C/c2c(O)ccc3ccccc23)[S][Zn][S]1 [Complex 6, Zn[ATSM/A-2-hydroxynaphthaldehyde]] | 460 | 334 | 62183 | 558 | 2.61 | λmax (nm) [2]: 379 nm
6 | CCCN(CCC)c1ccc(/C=N/NC2=NN=C(C)C(C)=NN=C(NC)[S][Zn][S]2)cc1 [Complex 7, Zn[ATSM/A-4-(di-n-propylamino)benzaldehyde]] | 465 | 321 | 75127 | 578 | 2.85 | λmax (nm) [2]: 370 nm
7 | CNC1=NN=C(C)C(C)=NN=C(N/N=C(\C)C(C)=O)[S][Zn][S]1 [Complex 8, Zn[ATSM/A-butane-2,3-dione]] | 455 | 323 | 35594 | 561 | 0.33 | –
8 | CNC1=NN=C(C)C(C)=NN=C(N/N=C/C(=O)c2ccccc2)[S][Zn][S]1 [Complex 9, Zn[ATSM/A-phenylglyoxal]] | 474 | 341 | 46157 | 605 | 0.19 | –
9 | CNC1=NN=C(C)C(C)=NN=C(N/N=C/c2ccc(C=O)cc2)[S][Zn][S]1 [Complex 10, Zn[ATSM/A-terephthalaldehyde]] | 468 | – | 49912 | 584 | 0.23 | fluorescence intensity in the zinc complex region, versus Zn[ATS(Me)/A-T-Amino-BTAP] [1]: approximately tenfold lower; rank of fluorescence emission curve intensity, FIG. 4 (b) [1]: lowest intensity; λmax (nm) [2]: 364 nm
10 | CNC1=NN=C(C)C(C)=NN=C(N/N=C/C=N/NC2=NN=C(C)C(C)=NN=C(NC)[S][Zn][S]2)[S][Zn][S]1 [Complex 11, Zn2[ATSM/A-glyoxal-ATSM/A]] | 489 | 330 | 126450 | 558 | 2.46 | increase in fluorescence intensity relative to Zn[ATSM] and Zn[ATSM/A] [3]: almost thirty-fold increase
11 | CNC1=NN=C(C)C(C)=NN=C(N/N=C/c2cccc(/C=N/NC3=NN=C(C)C(C)=NN=C(NC)[S][Zn][S]3)c2)[S][Zn][S]1 [Complex 13, Zn2[ATSM/A-isopthalaldehyde-ZnATSM/A]] | 457 | 339 | 79475 | 567 | 2.65 | increase in fluorescence intensity relative to Zn[ATSM] and Zn[ATSM/A] [3]: almost thirty-fold increase
12 | CC(C=NNC(=S)N(C)C)=NNC(=S)N(C)C.[Cu] [Cu[PTSM2]] | – | – | – | – | – | log P [4]: 3.18
13 | CC1=[N+]2N=C(N)[S][Cu-2]23[S]C(N)=N[N+]3=C1 (stereo not drawn) [Cu[PTS]] | – | – | – | – | – | log P ([4]; P is the octanol/water partition coefficient): 0.76
14 | CCNC1=N[N+]2=CC(c3ccccc3)=[N+]3N=C(NCC)[S][Zn-2]23[S]1 (stereo not drawn) [Zn PGTS(Et), Zn [PGTS(Et)]] | – | – | – | – | – | fluorescence peak associated with the phenyl ring [5]: 342 nm; Fluorescence Emission λmax(1) [5]: 391 nm; Fluorescence Emission λmax(2) [5]: 567 nm; UV/Vis Absorption λmax(2) [6]: 331 nm; UV/Vis Absorption λmax(3) [6]: 466 nm
15 | CCNC1=N[N+]2=CC=[N+]3N=C(NCC)[S][Zn-2]23[S]1 [Zn[GTS(Et)]] | – | – | – | – | – | Fluorescence Emission λmax(2) [5]: 550 nm; UV/Vis Absorption λmax(2) [6]: 323 nm; UV/Vis Absorption λmax(3) [6]: 445 nm
16 | CNC([S-])=NN=CC=NN=C([S-])NC.[Zn+2] [Zn[GTS(Me)]] | – | – | – | – | – | Fluorescence Emission λmax(2) [5]: 550 nm; UV/Vis Absorption λmax(2) [6]: 334 nm; UV/Vis Absorption λmax(3) [6]: 446 nm
17 | C1=[N+]2N=C(Nc3ccccc3)[S][Zn-2]23[S]C(Nc2ccccc2)=N[N+]3=C1 [Zn[GTS(Ph)]] | – | – | – | – | – | fluorescence peak associated with the phenyl ring [5]: 397 nm; Fluorescence Emission λmax(1) [5]: 340 nm; Fluorescence Emission λmax(2) [5]: 575 nm; UV/Vis Absorption λmax(2) [6]: 342 nm; UV/Vis Absorption λmax(3) [6]: 469 nm
18 | CN=C([S-])N/N=C(C)/C(C)=N/NC([S-])=NC.[Cu+2] [[Cu(ATSM)], Cu[ATSM], reference compound] | – | – | – | – | – | E1/2 of reduction (Cu(II) to Cu(I)) [7]: −0.59 V
19 | Zn[ATSM] [Complex 1, reference compound] | 429 | 308 | 29444 | 534 | 0.09 | Emission λmax [5]: 557 nm; UV/Vis absorptions [6]: 308 nm and 429 nm; fluorescence strength [3]: comparatively weak fluorescence; Relative intensity (values in parentheses) [3]: 0.35
